Calls of active or inactive are those of the source. Cut-off read from the data, not from the text of the source, for most assays here: actives have a measured EC50 and inactives only a lower limit.
Assays:
[1] = Dd2 parasite growth inhibition in erythrocytes – SYBR Green, dry powder samples, set 9, dose response (AID 1159568); format: functional, cell-based
[2] = NIH-3T3 fibroblast cytotoxicity, dose response, cytotoxicity control, cell-based, fluorescence, Alamar Blue, secondary assay (AID 2327); format: functional;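 note: NIH-3T3 mouse fibroblasts cultured with fluconazole at 8 µg/mL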
[3] = fluconazole-exposed Candida albicans growth modulators – fluorescence, retest, confirmation (AID 2467); format: functional, cell-based
[4] = biological target: T1, Carboxy-terminal domain RNA polymerase II polypeptide A small phosphatase 1 (Homo sapiens, UniProt Q9GZU7); experiment: CTDSP1 inhibitors, concentration-response, biochemical, absorbance readout, ultra-high-throughput screen actives (AID 540297); format: functional
T1 sequence (Q9GZU7 whole entry): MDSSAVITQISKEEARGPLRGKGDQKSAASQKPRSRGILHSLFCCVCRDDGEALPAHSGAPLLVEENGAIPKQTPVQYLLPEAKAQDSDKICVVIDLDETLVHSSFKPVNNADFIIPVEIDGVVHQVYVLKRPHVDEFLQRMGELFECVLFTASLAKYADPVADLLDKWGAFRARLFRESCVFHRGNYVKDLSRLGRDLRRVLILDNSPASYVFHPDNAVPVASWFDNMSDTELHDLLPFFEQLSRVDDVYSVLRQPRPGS

Fatty acid synthase [5] = biological target: T2, Fatty acid synthase (Homo sapiens, UniProt P49327); experiment: inhibition of human FAS-TE enzyme activity – biochemical, endpoint fluorescence intensity, uHTS hits, dose response (AID 624327); format: functional;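 note: fluorescence from hydrolysis of an O-methyl fluorescein acyl ester substrate by the enzyme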
Fatty acid synthase [6] = biological target: T2, Fatty acid synthase; experiment: inhibition of human FAS-TE enzyme activity – biochemical, kinetic fluorescence intensity, dose response (AID 624326); format: functional;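 note: rate of fluorescence rise from hydrolysis of a fluorogenic O-methyl fluorescein ester substrate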
[7] = biological target: T3, RNA-binding protein pos-1 (Caenorhabditis elegans, UniProt G5EF15); experiment: disruptors of C. elegans POS-1 RNA interaction – biochemical, fluorescence polarization, dose response (AID 1964);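 note: purified POS-1 fused to maltose binding protein made in E. coli; potency of compounds blocking POS-1 binding to fluorescent RNA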
T3 sequence (G5EF15 whole entry): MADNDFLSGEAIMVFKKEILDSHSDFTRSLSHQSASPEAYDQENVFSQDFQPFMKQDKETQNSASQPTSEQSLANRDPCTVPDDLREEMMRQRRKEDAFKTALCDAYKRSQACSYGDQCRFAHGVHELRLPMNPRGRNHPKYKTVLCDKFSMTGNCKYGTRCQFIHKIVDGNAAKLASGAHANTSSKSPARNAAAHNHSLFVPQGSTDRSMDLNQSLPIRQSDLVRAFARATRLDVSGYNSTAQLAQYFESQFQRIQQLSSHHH

[8] = biological target: T4, Zinc finger protein mex-5 (Caenorhabditis elegans, UniProt Q9XUB2); experiment: potency of MEX-5 RNA-binding blockers – biochemical, C. elegans, fluorescence polarization, dose response (AID 1960)
T4 sequence (Q9XUB2 whole entry): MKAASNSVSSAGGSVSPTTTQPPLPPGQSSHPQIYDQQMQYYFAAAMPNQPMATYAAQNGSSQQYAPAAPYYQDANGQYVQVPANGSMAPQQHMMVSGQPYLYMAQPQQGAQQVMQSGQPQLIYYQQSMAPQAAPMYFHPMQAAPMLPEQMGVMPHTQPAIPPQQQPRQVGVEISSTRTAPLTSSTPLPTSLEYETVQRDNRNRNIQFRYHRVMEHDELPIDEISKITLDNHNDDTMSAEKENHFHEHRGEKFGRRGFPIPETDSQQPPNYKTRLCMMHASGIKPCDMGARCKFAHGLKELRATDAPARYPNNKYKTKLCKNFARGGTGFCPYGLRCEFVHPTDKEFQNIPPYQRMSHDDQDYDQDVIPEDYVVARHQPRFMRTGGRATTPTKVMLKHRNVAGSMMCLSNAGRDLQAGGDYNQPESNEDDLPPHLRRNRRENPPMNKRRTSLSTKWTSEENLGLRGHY

BJ [9] = experiment: BJ-TERT fibroblast viability loss – cell-based, RAS-independent, luminescence, dose response (AID 1933); format: functional; details: Homo sapiens
BJ [10] = experiment: cells; format: functional, cell-based; details: Homo sapiens
BJ [11] = experiment: BJ-TERT-LT-ST fibroblast viability loss – cell-based, RAS-independent, luminescence, dose response (AID 1935); format: functional; details: Homo sapiens;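 note: BJ fibroblasts immortalized with TERT plus LT and ST oncogenes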
[12] = DRD fibroblast viability loss – cell-based, non-viral oncogenic, luminescence, dose response (AID 1934); format: functional; details: Homo sapiens
Leucine aminopeptidase = biological target: T5, Leucine aminopeptidase (Plasmodium falciparum 3D7, UniProt Q8IL11); experiment: P. falciparum M17LAP inhibitors, primary screen, biochemical, fluorogenic H-Leu-NHMec substrate, 1536-well (AID 1619); format: functional
T5 sequence (Q8IL11 whole entry): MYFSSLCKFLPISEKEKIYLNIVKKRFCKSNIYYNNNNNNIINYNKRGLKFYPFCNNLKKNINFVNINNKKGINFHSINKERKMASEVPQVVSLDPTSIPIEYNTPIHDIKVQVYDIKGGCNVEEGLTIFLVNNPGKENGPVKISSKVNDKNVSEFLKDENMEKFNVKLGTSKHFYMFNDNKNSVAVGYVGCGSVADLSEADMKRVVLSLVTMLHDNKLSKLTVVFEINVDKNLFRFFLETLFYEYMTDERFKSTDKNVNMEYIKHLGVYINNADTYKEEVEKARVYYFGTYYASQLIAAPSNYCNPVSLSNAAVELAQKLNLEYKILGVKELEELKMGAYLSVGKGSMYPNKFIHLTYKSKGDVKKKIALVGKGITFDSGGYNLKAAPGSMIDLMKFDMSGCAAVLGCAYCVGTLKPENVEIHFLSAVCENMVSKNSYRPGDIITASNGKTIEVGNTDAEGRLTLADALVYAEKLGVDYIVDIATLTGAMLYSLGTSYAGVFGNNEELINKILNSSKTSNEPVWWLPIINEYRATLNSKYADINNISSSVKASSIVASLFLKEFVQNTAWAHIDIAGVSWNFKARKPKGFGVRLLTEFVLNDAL

[13] = Luminescence Cell-Based Dose Confirmation HTS to Identify Activators of 5'UTR Stem-Loop Driven Alpha-Synuclein mRNA Translation in H4 Neuroglioblastoma Cells. [Related pubchem assays: 1829 (Project Summary), 1814 (Primary HTS)]; format: functional
[14] = Luminescence Cell-Based Dose Response HTS to Identify Activators of Luciferase Translation or Activity in H4 […] Cells. [Related pubchem assays: 1829 (Project Summary), 1814 (Primary HTS)]; format: functional
H4 = experiment: Luminescence Cell-Based Dose Response HTS to Identify Activators of 5'UTR Stem-Loop Driven Prion Protein mRNA Translation in H4 Neuroglioblastoma Cells. [Related pubchem assays: 1829 (Project Summary), 1814 (Primary HTS)]; format: functional; details: Homo sapiens
[15] = biological target: Luciferin 4-monooxygenase (Photinus pyralis, UniProt P08659); experiment: inhibition of purified Photinus pyralis luciferase – biochemical, luminescence, dose response (AID 1891)
[16] = Luminescence Cell-Based Dose Confirmation HTS to Identify Inhibitors of Platelet Dense Granule Release. [Related pubchem assays: 1663 (Primary HTS), 1678 (Summary of Project)]; format: functional

T2 sequence (P49327 whole entry): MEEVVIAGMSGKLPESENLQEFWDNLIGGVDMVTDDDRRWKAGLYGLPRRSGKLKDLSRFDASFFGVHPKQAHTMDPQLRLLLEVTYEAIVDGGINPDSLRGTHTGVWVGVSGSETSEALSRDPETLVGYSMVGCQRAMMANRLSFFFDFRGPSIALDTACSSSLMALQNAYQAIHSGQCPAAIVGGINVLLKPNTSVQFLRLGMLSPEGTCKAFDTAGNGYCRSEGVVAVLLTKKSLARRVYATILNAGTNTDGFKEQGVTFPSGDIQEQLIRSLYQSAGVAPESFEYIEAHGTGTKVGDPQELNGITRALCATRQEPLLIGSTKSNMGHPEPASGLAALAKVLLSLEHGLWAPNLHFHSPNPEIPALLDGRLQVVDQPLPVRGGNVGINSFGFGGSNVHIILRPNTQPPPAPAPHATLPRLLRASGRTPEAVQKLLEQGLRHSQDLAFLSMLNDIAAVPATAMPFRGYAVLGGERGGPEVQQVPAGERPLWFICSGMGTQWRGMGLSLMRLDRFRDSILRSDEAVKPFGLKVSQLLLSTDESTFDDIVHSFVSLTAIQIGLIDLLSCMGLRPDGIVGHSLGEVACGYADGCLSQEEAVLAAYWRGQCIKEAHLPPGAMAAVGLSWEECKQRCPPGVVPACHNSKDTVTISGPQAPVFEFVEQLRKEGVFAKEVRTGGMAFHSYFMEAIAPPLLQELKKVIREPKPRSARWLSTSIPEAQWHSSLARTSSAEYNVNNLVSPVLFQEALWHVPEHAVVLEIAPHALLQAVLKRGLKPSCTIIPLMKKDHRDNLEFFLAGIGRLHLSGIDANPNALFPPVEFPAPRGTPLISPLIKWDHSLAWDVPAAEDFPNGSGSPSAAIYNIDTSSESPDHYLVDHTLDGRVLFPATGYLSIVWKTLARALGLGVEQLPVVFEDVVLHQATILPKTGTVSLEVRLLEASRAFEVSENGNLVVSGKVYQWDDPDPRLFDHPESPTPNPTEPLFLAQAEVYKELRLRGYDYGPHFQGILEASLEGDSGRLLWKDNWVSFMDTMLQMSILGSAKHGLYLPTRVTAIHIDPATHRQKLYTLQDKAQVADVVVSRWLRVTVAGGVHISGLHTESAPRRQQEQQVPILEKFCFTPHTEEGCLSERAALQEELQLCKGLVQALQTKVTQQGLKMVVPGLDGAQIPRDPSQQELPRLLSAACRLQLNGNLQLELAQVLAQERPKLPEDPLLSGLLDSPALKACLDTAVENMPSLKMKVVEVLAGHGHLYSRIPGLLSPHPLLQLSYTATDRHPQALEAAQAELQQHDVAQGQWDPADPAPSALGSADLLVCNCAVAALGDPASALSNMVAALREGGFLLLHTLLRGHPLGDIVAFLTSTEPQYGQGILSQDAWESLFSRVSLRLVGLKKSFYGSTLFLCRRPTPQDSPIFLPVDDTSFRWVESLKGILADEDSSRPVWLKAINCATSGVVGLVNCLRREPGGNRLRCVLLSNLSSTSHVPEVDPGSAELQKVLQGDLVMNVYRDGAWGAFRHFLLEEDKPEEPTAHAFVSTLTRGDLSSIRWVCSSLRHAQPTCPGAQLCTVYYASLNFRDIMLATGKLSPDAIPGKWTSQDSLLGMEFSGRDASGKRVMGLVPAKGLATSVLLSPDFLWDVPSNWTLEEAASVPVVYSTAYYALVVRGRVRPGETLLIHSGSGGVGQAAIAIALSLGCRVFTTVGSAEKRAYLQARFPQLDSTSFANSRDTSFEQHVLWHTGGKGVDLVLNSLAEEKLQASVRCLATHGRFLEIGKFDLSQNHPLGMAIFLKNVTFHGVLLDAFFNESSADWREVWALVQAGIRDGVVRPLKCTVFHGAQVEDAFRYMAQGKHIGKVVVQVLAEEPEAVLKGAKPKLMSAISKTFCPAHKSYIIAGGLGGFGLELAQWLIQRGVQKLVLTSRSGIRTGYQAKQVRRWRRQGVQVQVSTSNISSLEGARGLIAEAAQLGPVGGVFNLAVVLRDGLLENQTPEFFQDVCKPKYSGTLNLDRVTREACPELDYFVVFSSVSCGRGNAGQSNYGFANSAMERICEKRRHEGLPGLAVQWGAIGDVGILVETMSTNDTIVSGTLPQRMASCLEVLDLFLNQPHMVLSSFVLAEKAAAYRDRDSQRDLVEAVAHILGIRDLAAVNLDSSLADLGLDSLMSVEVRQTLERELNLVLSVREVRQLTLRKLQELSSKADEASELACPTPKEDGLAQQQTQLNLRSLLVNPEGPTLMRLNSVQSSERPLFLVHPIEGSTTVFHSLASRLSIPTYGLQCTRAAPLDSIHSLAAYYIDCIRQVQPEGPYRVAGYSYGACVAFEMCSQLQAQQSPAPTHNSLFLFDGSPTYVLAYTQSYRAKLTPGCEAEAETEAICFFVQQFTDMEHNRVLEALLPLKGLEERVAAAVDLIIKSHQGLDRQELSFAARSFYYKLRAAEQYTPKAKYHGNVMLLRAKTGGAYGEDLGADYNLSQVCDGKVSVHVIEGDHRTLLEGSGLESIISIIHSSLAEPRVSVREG
Chain of Luciferin 4-monooxygenase (P08659 whole entry): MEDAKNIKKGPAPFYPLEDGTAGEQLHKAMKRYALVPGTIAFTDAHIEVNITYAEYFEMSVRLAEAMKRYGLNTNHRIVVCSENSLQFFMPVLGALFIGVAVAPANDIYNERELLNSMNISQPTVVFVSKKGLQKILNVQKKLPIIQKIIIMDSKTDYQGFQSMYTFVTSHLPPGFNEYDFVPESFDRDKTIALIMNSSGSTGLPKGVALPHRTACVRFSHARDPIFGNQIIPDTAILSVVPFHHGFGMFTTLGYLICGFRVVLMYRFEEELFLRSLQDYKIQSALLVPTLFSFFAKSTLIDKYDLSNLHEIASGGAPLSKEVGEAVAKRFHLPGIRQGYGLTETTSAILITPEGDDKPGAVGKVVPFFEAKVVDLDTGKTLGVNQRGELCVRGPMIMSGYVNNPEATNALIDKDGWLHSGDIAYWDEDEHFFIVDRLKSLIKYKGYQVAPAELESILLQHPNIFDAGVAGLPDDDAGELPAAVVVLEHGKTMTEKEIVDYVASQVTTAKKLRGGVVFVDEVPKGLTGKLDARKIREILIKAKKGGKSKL

For `C[C@H](CO)N1C[C@H](C)[C@H](CN(C)S(=O)(=O)c2ccccc2)OCCCC[C@H](C)Oc2ccc(NC(=O)Nc3ccc4c(c3)OCO4)cc2C1=O`, the AC50 [1] was 8.9 µM (active).
For `CN=C(S)N1N=C(c2ccccc2)CC1c1ccccc1Cl` (stereo not drawn), the EC50 [2] was > 160 µM (inactive) and the EC50 [3] was > 38 µM (not active).
With `Cc1ccc(NC(=O)CN2C(=O)CSc3ccc(S(=O)(=O)N4CCCCC4)cc32)cc1` the IC50 [4] was 4.3 µM (active), the IC50 (Fatty acid synthase [5]) was 14.9 µM (active) and the IC50 (Fatty acid synthase [6]) was 9.65 µM (active).
In the case of `O=C(O)c1ccc(-n2cccc2)cc1O`, the EC50 [7] is reported as > 300 µM (not active) and the EC50 [8] is reported as > 300 µM (not active).
With `CC1=NN(C(N)=S)C(=O)C1N=Nc1ccc(S(N)(=O)=O)cc1` (stereo not drawn) the EC50 [7] was 19.7 µM (active) and the EC50 [8] was 8.86 µM (active).
For `COc1cc(C(=O)c2cocc2C(=O)c2ccc3c(c2)OCO3)cc(OC)c1OC`, the EC50 (BJ [9]) was 2.71 µM (active), the EC50 (BJ [10]) was 38.6 µM (inconclusive) and the EC50 (BJ [11]) was 2.57 µM (inconclusive). For the same molecule, the EC50 [12] was 1.45 µM (active).
For `C[C@@H]1CCCCO[C@@H](CN(C)S(=O)(=O)c2ccc(F)cc2)[C@H](C)CN([C@@H](C)CO)C(=O)c2cc(N(C)C)ccc2O1`, the AC50 [1] was 7.31 µM (active).
With `C[C@@H]1CN([C@@H](C)CO)C(=O)c2ccccc2-c2ccccc2CO[C@@H]1CN(C)S(=O)(=O)Cc1ccccc1` the AC50 [1] was 21.9 µM (active).
For `COc1ccc(NC(=O)CSc2c(C)nn(-c3nnc(C)c(=O)[nH]3)c2C)cc1`, the IC50 (Leucine aminopeptidase) was 83.7 µM (active).
With `CCc1cc2c(=O)oc(-c3ccccc3F)nc2s1` the IC50 (Fatty acid synthase [5]) was 2.48 µM (active) and the IC50 (Fatty acid synthase [6]) was 1.62 µM (active).
In the case of `CC(=O)Nc1cccc(Oc2nc(-c3ccccn3)nc3ccccc23)c1`, the EC50 [7] is reported as 79.3 µM (active), the EC50 [13] is reported as 92.7 µM (active) and the EC50 [14] is reported as 11.8 µM (active). For the same molecule, the EC50 (H4) was 7.56 µM (active) and the EC50 [8] was 5.2 µM (active).
In the case of `C/N=C1\S/C(=C\c2cn(CC(=O)OC)c3ccccc23)C(=O)N1C`, the EC50 [7] is reported as > 300 µM (not active) and the EC50 [8] is reported as > 300 µM (not active).
In the case of `Cc1ccc(N2C(=O)c3ccccc3C2O)nc1` (stereo not drawn), the EC50 (BJ [9]) is reported as 8.32 µM (active), the EC50 [15] is reported as 6.56 µM (active) and the EC50 [16] is reported as 1.74 µM (active). For the same molecule, the EC50 (BJ [11]) was > 75 µM (inconclusive) and the EC50 [12] was 7.47 µM (inconclusive).
In the case of `O=C(CNc1ccccc1F)N/N=C/C1CC=CCC1` (stereo not drawn), the EC50 [2] is reported as > 160 µM (inactive) and the EC50 [3] is reported as > 38 µM (not active).
